Test results from ChEMBL document CHEMBL1914411, “Synthesis of lipophilic dimeric C-7/C-7-linked ciprofloxacin and C-6/C-6-linked levofloxacin derivatives. Versatile in vitro biological evaluations of monomeric and dimeric fluoroquinolone derivatives as potential antitumor, antibacterial or antimycobacterial agents” (Eur J Med Chem, 2011).
Converted amounts (≈) assume the structure as drawn. The source made the active and inactive calls. No rule for the calls is given here.

What was measured:
Staphylococcus aureus [1] = assay: Antimicrobial activity against Staphylococcus aureus CIP 4.83 after 18 to 24 hrs by broth microdilution method; assay type: functional
[2] = test system: Mycobacterium tuberculosis; assay: Antimycobacterial activity against Mycobacterium tuberculosis H37Rv assessed as growth inhibition at 0.1 uM after 6 days by MTT colorimetric microassay; assay type: functional, organism-based
Enterococcus hirae = assay: Antimicrobial activity against Enterococcus hirae CIP 5855 after 18 to 24 hrs by broth microdilution method; assay type: functional
[3] = test system: Mycobacterium tuberculosis; assay: Antimycobacterial activity against Mycobacterium tuberculosis H37Rv assessed as growth inhibition at 10 uM after 6 days by MTT colorimetric microassay; assay type: functional; details: 144 h, read-out: GI
Escherichia coli = assay: Antimicrobial activity against Escherichia coli CIP 53126 after 18 to 24 hrs by broth microdilution method; assay type: functional
Pseudomonas aeruginosa = assay: Antimicrobial activity against Pseudomonas aeruginosa CIP 82.118 after 18 to 24 hrs by broth microdilution method; assay type: functional
Staphylococcus aureus [4] = assay: Antimicrobial activity against multidrug-resistant Staphylococcus aureus isolate 1 after 18 to 24 hrs by broth microdilution method; assay type: functional
Staphylococcus aureus [5] = assay: Antimicrobial activity against multidrug-resistant Staphylococcus aureus isolate 2 after 18 to 24 hrs by broth microdilution method; assay type: functional
Staphylococcus aureus [6] = assay: Antimicrobial activity against methicillin-resistant Staphylococcus aureus ATCC 33592 after 18 to 24 hrs by broth microdilution method; assay type: functional
Staphylococcus aureus [7] = assay: Antimicrobial activity against methicillin-resistant Staphylococcus aureus ATCC 33591 after 18 to 24 hrs by broth microdilution method; assay type: functional

Row | SMILES | MBC (Staphylococcus aureus [1]) [µM] | MIC (Staphylococcus aureus [1]) [µM] | growth inhibition (GI) [2] | MBC (Enterococcus hirae) [µM] | MIC (Enterococcus hirae) [µM] | inhibition of growth at 10 µM [3] [%] | MBC (Escherichia coli) [µM] | MIC (Escherichia coli) [µM] | MBC (Pseudomonas aeruginosa) [µM] | MIC (Pseudomonas aeruginosa) [µM] | MBC (Staphylococcus aureus [4]) [µM] | MIC (Staphylococcus aureus [4]) [µM] | MBC (Staphylococcus aureus [5]) [µM] | MIC (Staphylococcus aureus [5]) [µM] | MBC (Staphylococcus aureus [6]) [µM] | MIC (Staphylococcus aureus [6]) [µM] | MBC (Staphylococcus aureus [7]) [µM] | MIC (Staphylococcus aureus [7]) [µM]
1 | CCCCCCCCCCCCNC(=O)c1cn2c3c(c(N4CCN(C)CC4)c(F)cc3c1=O)OC[C@@H]2C | 15.6 (≈ 8.25 µg/mL) | 3.9 (≈ 2.06 µg/mL) | inactive | 3.9 (≈ 2.06 µg/mL) | 3.9 (≈ 2.06 µg/mL) | > 95 | 500 (≈ 264 µg/mL) | 125 (≈ 66.1 µg/mL) | 250 (≈ 132 µg/mL) | 62.5 (≈ 33 µg/mL) | – | – | – | – | – | – | – | –
2 | O=C(CCCCCCCCC(=O)OCN1CCN(c2cc3c(cc2F)c(=O)c(C(=O)O)cn3C2CC2)CC1)OCN1CCN(c2cc3c(cc2F)c(=O)c(C(=O)O)cn3C2CC2)CC1 | 250 (≈ 222 µg/mL) | 31.2 (≈ 27.7 µg/mL) | inactive | 250 (≈ 222 µg/mL) | 62.5 (≈ 55.6 µg/mL) | 62 | 62.5 (≈ 55.6 µg/mL) | 31.2 (≈ 27.7 µg/mL) | 125 (≈ 111 µg/mL) | 31.2 (≈ 27.7 µg/mL) | – | – | – | – | – | – | – | –
3 | CCCCCC(=O)OCOC(=O)c1cn2c3c(c(N4CCN(C)CC4)c(F)cc3c1=O)OC[C@@H]2C | – | – | inactive | – | – | > 95 | – | – | – | – | – | – | – | – | – | – | – | –
4 | CCCCCCCCC(=O)N1CCN(c2cc3c(cc2F)c(=O)c(C(=O)O)cn3C2CC2)CC1 | ≤ 0.03 | ≤ 0.97 | inactive | 31.2 (≈ 14.7 µg/mL) | 31.2 (≈ 14.7 µg/mL) | > 95 | 500 (≈ 236 µg/mL) | 31.2 (≈ 14.7 µg/mL) | 250 (≈ 118 µg/mL) | 62.5 (≈ 29.5 µg/mL) | 500 (≈ 236 µg/mL) | 31.2 (≈ 14.7 µg/mL) | 500 (≈ 236 µg/mL) | 31.2 (≈ 14.7 µg/mL) | 0.24 (≈ 0.113 µg/mL) | 0.12 (≈ 0.0566 µg/mL) | 0.24 (≈ 0.113 µg/mL) | 0.02 (≈ 0.00943 µg/mL)
5 | CCC(=O)N1CCN(c2cc3c(cc2F)c(=O)c(C(=O)O)cn3C2CC2)CC1 | ≤ 0.97 | ≤ 0.48 | inactive | 3.9 (≈ 1.51 µg/mL) | 3.9 (≈ 1.51 µg/mL) | – | 500 (≈ 194 µg/mL) | 3.9 (≈ 1.51 µg/mL) | 250 (≈ 96.9 µg/mL) | 31.2 (≈ 12.1 µg/mL) | 500 (≈ 194 µg/mL) | 62.5 (≈ 24.2 µg/mL) | 31.2 (≈ 12.1 µg/mL) | 31.2 (≈ 12.1 µg/mL) | 0.48 (≈ 0.186 µg/mL) | 0.24 (≈ 0.093 µg/mL) | 0.97 (≈ 0.376 µg/mL) | 0.48 (≈ 0.186 µg/mL)
6 | O=C(O)c1cn(C2CC2)c2cc(N3CCN(C(=O)COCc4ccccc4)CC3)c(F)cc2c1=O | ≤ 0.24 | ≤ 0.12 | inactive | 7.8 (≈ 3.74 µg/mL) | 7.8 (≈ 3.74 µg/mL) | – | 1.9 (≈ 0.911 µg/mL) | ≤ 0.97 | 250 (≈ 120 µg/mL) | 15.6 (≈ 7.48 µg/mL) | 500 (≈ 240 µg/mL) | 125 (≈ 59.9 µg/mL) | 125 (≈ 59.9 µg/mL) | 62.5 (≈ 30 µg/mL) | 0.97 (≈ 0.465 µg/mL) | 0.24 (≈ 0.115 µg/mL) | 0.97 (≈ 0.465 µg/mL) | 0.48 (≈ 0.23 µg/mL)
7 | CCCCCCC(=O)N1CCN(c2cc3c(cc2F)c(=O)c(C(=O)O)cn3C2CC2)CC1 | ≤ 0.12 | ≤ 0.03 | inactive | 31.2 (≈ 13.8 µg/mL) | 31.2 (≈ 13.8 µg/mL) | > 95 | 31.2 (≈ 13.8 µg/mL) | 31.2 (≈ 13.8 µg/mL) | 250 (≈ 111 µg/mL) | 62.5 (≈ 27.7 µg/mL) | 500 (≈ 222 µg/mL) | 62.5 (≈ 27.7 µg/mL) | > 500 | 250 (≈ 111 µg/mL) | 0.24 (≈ 0.106 µg/mL) | 0.06 (≈ 0.0266 µg/mL) | 0.48 (≈ 0.213 µg/mL) | 0.06 (≈ 0.0266 µg/mL)
8 | CC(C)(C)OC(=O)N1CCN(c2cc3c(cc2F)c(=O)c(C(=O)O)cn3C2CC2)CC1 | ≤ 0.24 | ≤ 0.12 | inactive | 15.6 (≈ 6.73 µg/mL) | 15.6 (≈ 6.73 µg/mL) | – | 1.9 (≈ 0.82 µg/mL) | 1.9 (≈ 0.82 µg/mL) | 250 (≈ 108 µg/mL) | 15.6 (≈ 6.73 µg/mL) | 500 (≈ 216 µg/mL) | 31.2 (≈ 13.5 µg/mL) | 31.2 (≈ 13.5 µg/mL) | 15.6 (≈ 6.73 µg/mL) | 0.48 (≈ 0.207 µg/mL) | 0.12 (≈ 0.0518 µg/mL) | 0.48 (≈ 0.207 µg/mL) | 0.06 (≈ 0.0259 µg/mL)
9 | CC(=O)N1CCN(c2cc3c(cc2F)c(=O)c(C(=O)O)cn3C2CC2)CC1 | 1.9 (≈ 0.709 µg/mL) | ≤ 0.48 | inactive | 7.8 (≈ 2.91 µg/mL) | 7.8 (≈ 2.91 µg/mL) | – | 1.9 (≈ 0.709 µg/mL) | 1.9 (≈ 0.709 µg/mL) | 31.2 (≈ 11.6 µg/mL) | 31.2 (≈ 11.6 µg/mL) | 500 (≈ 187 µg/mL) | 62.5 (≈ 23.3 µg/mL) | 62.5 (≈ 23.3 µg/mL) | 31.2 (≈ 11.6 µg/mL) | 0.97 (≈ 0.362 µg/mL) | 0.48 (≈ 0.179 µg/mL) | 0.97 (≈ 0.362 µg/mL) | 0.97 (≈ 0.362 µg/mL)
10 | CCCCCCCCCCCCCCNC(=O)c1cn2c3c(c(N4CCN(C)CC4)c(F)cc3c1=O)OC[C@@H]2C | 31.2 (≈ 17.4 µg/mL) | 7.8 (≈ 4.34 µg/mL) | inactive | 3.9 (≈ 2.17 µg/mL) | 3.9 (≈ 2.17 µg/mL) | > 95 | 250 (≈ 139 µg/mL) | 125 (≈ 69.6 µg/mL) | 250 (≈ 139 µg/mL) | 62.5 (≈ 34.8 µg/mL) | – | – | – | – | – | – | – | –
